From PMC9920413, “New Bicyclic Pyridine-Based Hybrids Linked to the 1,2,3-Triazole Unit: Synthesis via Click Reaction and Evaluation of Neurotropic Activity and Molecular Docking” (Molecules, 2023)

What was measured:
[1] = tested on: pentylenetetrazole (PTZ)-induced convulsions; test: Antagonism to pentylenetetrazole (PTZ) convulsions; type: in vivo; conditions: for ED50: Mus musculus, mice, i.p. 45 min before PTZ 90 mg/kg s.c., confidence limits in brackets, p = 0.05, read-out: ED50 (by PTZ antagonism); for TI: therapeutic index TI = LD50/ED50
Experimental: (§1) The study of the anticonvulsant activity of hybrids 7a–u was assessed by evaluating the antagonism to pentylenetetrazole (PTZ), thiosemicarbazide convulsive seizures, and maximal electroshock-induced seizures (MES). The PTZ-induced test is considered an experimental model for the clonic component of epilepsy seizures and the prognostic anxiolytic activity of the compounds. PTZ is a common convulsive agent used in animal models to investigate the mechanisms of seizures. The model of thiosemicarbazide (TSC) seizures (affecting the exchange of GABA) causes clonic seizures similar to pentylenetetrazole ones. The MES test is used as an animal model for the generalization of tonic seizures in epilepsy. The neurotoxicity and side effects of the compounds (movement coordination disorder, myorelaxation, and ataxia) were also studied on mice with the “rotating rod”[29] test.
The anticonvulsant effect of the newly synthesized compounds was investigated by tests comprising pentylenetetrazole, thiosemicarbazide convulsions, and maximal electroshock (MES). Outbred mice (weight 18–22 g) were used for the study. […] Each animal is placed into an individual plastic cage for observation lasting 1 h. Seizures and clonic convulsions were recorded. […] The control animals were administered as an emulsifier. Every dose of each test compound was studied in six animals.
(§2) Adverse neurotoxic (muscle relaxant) effects of compounds were studied at doses of 50 to 500 mg/kg when administered intraperitoneally, as well as reference drugs in effect at anticonvulsant doses. Myorelaxation was investigated with the test of a “rotating rod” in mice. To this end, mice were planted on a metal rod with a corrugated rubber coating, which rotated at a speed of 5 revolutions per minute. The number of animals that cnot stay on it for 2 min was determined. To determine the ED50, neurotoxic TD50, and LD50, the statistical method of penetration by Litchfield and Wilcoxon was used.

[2] = Rotating rod test (neurotoxicity, myorelaxation); type: in vivo; conditions: outbred, mouse, in vivo, ip, mice, myorelaxation in 50% of animals
Experimental: as §1, §2

in vivo = conditions: outbred, mouse, in vivo; mice, dead animals after 24 h
Experimental: as §2

[3] = tested on: thiosemicarbazide (TSC)-induced convulsions; test: Thiosemicarbazide (TSC) seizures; type: in vivo, mice; conditions: mice; for response vs control in vivo at 100 mg/kg: Mus musculus, ip, compound 100 mg/kg i.p., relative to control = 1.0, read-out: Latency of Convulsions, Induced by TSC, I (index of latent period of TSC seizures); for Latency of Convulsions, Induced by TSC, M ± M: compound 100 mg/kg i.p. 45 min before TSC 18 mg/kg s.c.
Experimental: as §1
Thiosemicarbazide, an antimetabolite of GABA inhibitor (glutamic acid decarboxylase) in the brain, is administered subcutaneously to mice at a dose of 18 mg/kg as a 0.5% solution, which causes clonic convulsions in animals. Anti-thiosemicarbazide activity was evaluated based on the latency time of the onset of seizures. Compounds were administered intraperitoneally at doses of 100 mg/kg in suspension with carboxymethylcellulose and Tween-80 45 min before administration of thiosemicarbazide.

rats [4] = test: Open field test; type: in vivo; conditions: 50 mg/kg i.p.; for Cells Examination, amount (absolute data during 5 min): control 2.4 ± 0.67; for Vertical Displacement, amount (absolute data during 5 min): control 7.0 ± 2.14; for Horizontal Displacement, amount (absolute data during 5 min): control 21.6 ± 2.25
Experimental: Open field test. The research-motor behavior of rats was studied on a modified “open field” model. For this purpose, an installation was used, the bottom of which is divided into squares with holes (cells). Experiments were performed in the daytime with natural light. Within 5 min of the experiment, the indicators of sedative and activating behavior were determined, namely the number of horizontal movements, standing on the hind legs (vertical movements), and sniffing of the cells. The number of animals on this model was eight for each compound, control, and reference drug.

mouse = test: Elevated plus maze (EPM) test; type: in vivo; conditions: 50 mg/kg i.p., 5 min; for Time Spent in the Open Arms: control 2.6 ± 1.6; for Number of Entries into the Closed Arms: control 9.4 ± 1.6; for Time Spent in the Center: control 28.2 ± 3.12; for Time Spent in Closed Arms: control 269.2 ± 10.4
Excerpt: Elevated plus maze—EPM test. Anti-anxiety and sedative effects were studied on mouse a model of the “elevated plus maze”. The labyrinth is a cruciform machine raised above the floor, with a pair of open and closed sleeves opposed to each other. Normal animals prefer to spend most of their time in the closed (dark) sleeves of the labyrinth. The anxiolytic effect of the compounds was estimated by the increase in the number of entries into open (light) sleeves and the time spent in them without increasing the total motor activity. This records the time spent in the closed sleeve and the number of attempts to enter the installation center. In the above model, the test compounds and the reference drug were injected intraperitoneally before the experiments. The control animals were administered as an emulsifier. Results were processed statistically (p < 0.05).

mice = test: Forced swimming test; conditions: 50 mg/kg, 6 min; for Total Time of Immobilization: control 42.0 ± 7.24; for Total Time of Active Swimming: control 318.0 ± 8.36;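 for all read-outs here: mice made to swim in a water-filled glass vessel under natural light, with durations of active swimming and immobility recorded across the 6 min session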
Experimental: Forced swimming test. To assess “despair and depression”, the “compelling swimming” model was used. Experimental animals were forced to swim in a glass container (height 22 cm, diameter 14 cm), filled 1/3 with water. […] The latent period of immobilization, the total duration of active swimming and immobilization are fixed at 6 min (the experiments were conducted under natural light).

rats [5] = test: Electroshock retrograde amnesia, conditioned response of passive avoidance (CRPA); type: in vivo; conditions: 1000 mg/kg, study for 5 min
Experimental: Test for learning and memory. The antiamnesic properties of the compounds were studied using an electroshock amnesia model modified by J. Bures, O. Buresova. In rats, a conditioned passive avoidance reaction (CRPA) to a dark-light setting was developed, while the training of the animals with CRPA was recorded. The residence times in the light and dark compartments were recorded for 5 min (300 s). Then, in the dark compartment, the animal received a single current shock (0.4 mA) through the electrode floor (training). To obtain amnesia, a maximum electroconvulsive seizure is induced in animals (conducting a maximum electric current of 50 Hz for 0.2 s through corneal electrodes). Conducting an electric shock immediately after training causes the erasure of the memory trace. The test for reproduction is carried out 24 h after training—after the development of CRPA. During this period, the control animals forget the training and prefer to be in the dark part of the chamber. An increase in the time spent by rats in the light compartment compared to the control on the second day indicates the presence of antiamnestic properties of the compounds.

| Structure (SMILES) | ED50 [1] | TI [1] | TD50 at 2 min [2] | LD50 at 24 h (in vivo) | response vs control in vivo at 100 mg/kg [3] | Latency of Convulsions, Induced by TSC, M ± M [3] | Cells Examination, amount (absolute data during 5 min) (rats [4]) | Vertical Displacement, amount (absolute data during 5 min) (rats [4]) | Horizontal Displacement, amount (absolute data during 5 min) (rats [4]) | Time Spent in the Open Arms (mouse) | Number of Entries into the Closed Arms (mouse) | Time Spent in the Center (mouse) | Time Spent in Closed Arms (mouse) | Total Time of Immobilization (mice) | Total Time of Active Swimming (mice) | The Time Spent in the Light Chamber When Playing CRPA + MESH after 24 h, Second Day (rats [5]) | The Time Spent in the Light Chamber during the Training of the CRPA, First Day (rats [5]) |
| --- | --- | --- | --- | --- | --- | --- | --- | --- | --- | --- | --- | --- | --- | --- | --- | --- | --- |
| CCCc1nc(N2CCN(C(=O)Cn3cc(COc4nc(C(C)C)c5c(c4C#N)CCC5)nn3)CC2)c(C#N)c2c1COC(C)(C)C2 [7c, 6-{4-[(4-{[(4-Cyano-1-isopropyl-6,7-dihydro-5H-cyclopenta[c]pyridin-3-yl)oxy]methyl}-1H-1,2,3-triazol-1-yl)acetyl]piperazin-1-yl}-3,3-dimethyl-8-propyl-3,4-dihydro-1H-pyrano [3,4-c]pyridine-5-carbonitrile] | 35 mg/kg | 18.6 | > 500 mg/kg | 650 mg/kg | 250% | 25.0 ± 4.1 min | 4.2 ± 0.56 | 6.2 ± 1.03 | 57.2 ± 12.85 | 10.6 ± 2.1 s | 2.6 ± 1.4 | 45.4 ± 4.7 s | 244.0 ± 10.67 s | 10.0 ± 4.1 s | 350.0 ± 11.62 s | – | – |
| CCCc1nc(N2CCN(C(=O)Cn3cc(COc4nc(CC)c5c(c4C#N)CC(C)(C)OC5)nn3)CC2)c(C#N)c2c1COC(C)(C)C2 [7r, 6-[(1-{2-[4-(5-Cyano-3,3-dimethyl-8-propyl-3,4-dihydro-1H-pyrano [3,4-c]pyridin-6-yl)piperazin-1-yl]-2-oxoethyl}-1H-1,2,3-triazol-4-yl)methoxy]-8-ethyl-3,3-dimethyl-3,4-dihydro-1H-pyrano [3,4-c]pyridine-5-carbonitrile] | 26 mg/kg | 27.3 | > 500 mg/kg | 710 mg/kg | 394% | 39.4 ± 1.11 min | 4.4 ± 1.89 | 2.2 ± 1.36 | 30.0 ± 2.48 | 7.0 ± 2.59 s | 3.4 ± 1.59 | 83.0 ± 5.1 s | 210.4 ± 10.3 s | 36.0 ± 5.55 s | 324.0 ± 18.55 s | – | – |
| CCCc1nc(OCc2cn(CC(=O)N3CCN(c4nc(CCC)c5c(c4C#N)CC(C)(C)OC5)CC3)nn2)c(C#N)c2c1COC(C)(C)C2 [7u, 6-{4-[(4-{[(5-Cyano-3,3-dimethyl-8-propyl-3,4-dihydro-1H-pyrano [3,4-c]pyridin-6-yl)oxy]methyl}-1H-1,2,3-triazol-1-yl)acetyl]piperazin-1-yl}-3,3-dimethyl-8-propyl-3,4-dihydro-1H-pyrano [3,4-c]pyridine-5-carbonitrile] | 32 mg/kg | 21.3 | > 500 mg/kg | 680 mg/kg | 438% | 43.8 ± 1.03 min | 2.2 ± 1.03 | 3.6 ± 0.67 | 41.8 ± 6.12 | 20.0 ± 3.12 s | 4.4 ± 2.1 | 36.2 ± 2.38 s | 243.8 ± 20.7 s | 84.0 ± 12.5 s | 276.0 ± 26.0 s | – | – |
| CCc1nc(OCc2cn(CC(=O)N3CCN(c4nc(CC)c5c(c4C#N)CC(C)(C)OC5)CC3)nn2)c(C#N)c2c1COC(C)(C)C2 [7q, 6-{4-[(4-{[(5-Cyano-8-ethyl-3,3-dimethyl-3,4-dihydro-1H-pyrano [3,4-c]pyridin-6-yl)oxy]methyl}-1H-1,2,3-triazol-1-yl)acetyl]piperazin-1-yl}-8-ethyl-3,3-dimethyl-3,4-dihydro-1H-pyrano [3,4-c]pyridine-5-carbonitrile] | 42 mg/kg | 18.8 | > 500 mg/kg | 790 mg/kg | 220% | 22.0 ± 2.2 min | 7.4 ± 2.42 | 8.8 ± 1.61 | 60.2 ± 4.61 | 24.0 ± 2.5 s | 5.0 ± 2.19 | 50.8 ± 3.4 s | 225.2 ± 13.87 s | 24.0 ± 2.9 s | 336.0 ± 25.3 s | – | – |
| CCCc1nc(N2CCN(C(=O)Cn3cc(COc4nc(C)c5c(c4C#N)CC(C)(C)OC5)nn3)CC2)c(C#N)c2c1COC(C)(C)C2 [7o] | 28 mg/kg | 28.6 | > 500 mg/kg | 800 mg/kg | 304% | 30.4 ± 1.1 min | 8.6 ± 3.25 | 9.6 ± 3.89 | 73.0 ± 13.37 | 10.0 ± 2.78 s | 5.8 ± 1.03 | 61.0 ± 3.68 s | 229.0 ± 11.2 s | 2.0 ± 0.4 s | 358.0 ± 12.0 s | – | – |
| CCc1nc(N2CCN(C(=O)Cn3cc(COc4nc(C(C)C)c5c(c4C#N)CCCC5)nn3)CC2)c(C#N)c2c1COC(C)(C)C2 [7h] | 27 mg/kg | 26.7 | > 500 mg/kg | 720 mg/kg | 150% | 15.2 ± 1.2 min | 6.8 ± 3.12 | 6.0 ± 0.89 | 63.8 ± 14.02 | 30.0 ± 2.4 s | 4.8 ± 1.34 | 28.4 ± 2.38 s | 246.6 ± 21.9 s | 2.0 ± 0.8 s | 358.0 ± 8.2 s | – | – |
| NC(=O)CN1CCCC1=O [Piracetam, piracetam, reference compound] | – | – | – | – | – | – | – | – | – | – | – | – | – | – | – | 243.7 ± 8.4 s | 158.0 ± 5.9 s |
